Data on 4 molecules can be found in ChEMBL document CHEMBL1201862, “PubChem BioAssay data set” (2004).

Active and inactive are the calls of the source.

The nature of experiment [1]: inhibitors of Trypanosoma cruzi host-cell infection, confirmation, beta-gal luminescence, NIH3T3 host cells (AID 2630). Type of experiment: functional, cell-based. The settings on record: Mus musculus.
The subject of another experiment is Trypanosoma cruzi. The experiment is described as follows: growth inhibition of intracellular Trypanosoma cruzi, dose response, cell-based, plate reader, dry powder, set 3 (AID 493197). The format is functional.
Experiment [2] can be described thus: Luminescence-based counterscreen assay for KLF5 inhibitors: dose response cell-based high throughput screening assay to identify cytotoxic compounds using the IEC-6 intestinal epithelial cell line. [Related pubchem assays: 1700 (Primary screen.), 1834 (Confirmation screen.), 1858 (Summary AID.), 1905 (Counterscreen.)]. Type of experiment: functional. Background: A counterscreen serves to expose hits that act by an unwanted route or on another target.

Another experiment relates to HT-1080. The experiment is described as follows: cytotoxicity in HT1080 fibrosarcoma cells, cell-based, fluorescence readout (AID 620). The format is functional. The settings on record: Homo sapiens.
Experiment [3] deals with T1, Luciferin 4-monooxygenase (Photinus pyralis, UniProt P08659). The experiment is described as follows: Counter Screen for Luciferase-based Assay Positives. [Related pubchem assays: 620, 618, 411 ].
T1 sequence (P08659 whole entry): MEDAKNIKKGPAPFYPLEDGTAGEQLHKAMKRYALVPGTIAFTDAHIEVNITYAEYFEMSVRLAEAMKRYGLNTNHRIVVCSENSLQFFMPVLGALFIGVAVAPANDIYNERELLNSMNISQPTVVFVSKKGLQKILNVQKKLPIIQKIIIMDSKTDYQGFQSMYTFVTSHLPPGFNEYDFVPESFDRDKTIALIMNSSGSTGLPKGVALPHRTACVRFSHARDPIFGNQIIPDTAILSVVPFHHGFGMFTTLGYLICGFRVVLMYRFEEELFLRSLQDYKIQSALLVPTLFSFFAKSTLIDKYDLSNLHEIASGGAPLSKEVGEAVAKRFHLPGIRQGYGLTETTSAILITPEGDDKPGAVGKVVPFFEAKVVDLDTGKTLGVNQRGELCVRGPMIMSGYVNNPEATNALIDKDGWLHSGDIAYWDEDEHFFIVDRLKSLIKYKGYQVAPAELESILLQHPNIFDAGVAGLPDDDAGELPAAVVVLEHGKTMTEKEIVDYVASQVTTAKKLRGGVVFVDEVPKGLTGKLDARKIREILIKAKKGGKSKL
Experiment [4] deals with HEK293. The experiment is described as follows: PMA/Ionomycin induced NF-kB luciferase assay in 293- NF-kB-Luc stable cells. [Related pubchem assays: 1299, 1270, 1295, 1375, 1287, 1281, 1293, 1291, 1289, 1280, 465, 1364, 1282, 1372, 1365, 1370, 1367, 1366, 1269, 1373, 1292, 1290, 1302, 1371, 1283, 1271, 1294, 1374, 1368, 1369 ]. Type of experiment: functional, cell-based. The settings on record: Homo sapiens.

For experiment [5], the system named is HEK293. The experiment is described as follows: Cytotoxicity assay in HEK293 cells. [Related pubchem assays (depositor defined):AID1266, AID1269, AID1270, AID1271, AID1280, AID1281, AID1282, AID1283, AID1287, AID1289, AID1290, AID1291, AID1292, AID1293, AID1294, AID1295, AID1299, AID1302, AID1364, AID1365, AID1366, AID1367, AID1369, AID1370, AID1371, AID1372, AID1373, AID1374, AID1375, AID1384 …. The format is functional, cell-based. The settings on record: Homo sapiens.

In experiment [6] the test system is HEK293. The experiment is described as follows: TNF Induced NF-kB Luciferase in 293-NF-kB-Luc Stable Cells. [Related pubchem assays: 1266, 1299, 1269, 1373, 1292, 1290, 1302, 1371, 1283, 1270, 1295, 1271, 1375, 1294, 1374, 1281, 1293, 1291, 1289, 1280, 465, 1368, 1364, 1282, 1372, 1365, 1369, 1370, 1367, 1366 ]. Type of experiment: functional, cell-based. The settings on record: Homo sapiens.

Experiment [7] addresses Glyceraldehyde-3-phosphate dehydrogenase (Homo sapiens, UniProt P04406).
A short description of experiment [8]: inhibitors of HIV Env-driven cell fusion, dose response, cherry-pick (AID 652057). Type of experiment: functional, cell-based.
In experiment [9] the test system is HEK293. As to the kind of experiment: PMA/Ionomycin-induced IL-8 production in HEK293- NF-kB-Luc stable cells. [Related pubchem assays: 1299, 1295, 1375, 1287, 1281, 1293, 1291, 1289, 1280, 465, 1364, 1282, 1372, 1365, 1367, 1366, 1266, 1269, 1373, 1292, 1290, 1302, 1371, 1283, 1271, 1294, 1374, 1368, 1369 ]. The format is functional, cell-based. The settings on record: Homo sapiens.

Experiment [10] is described as follows: inhibitors of clade B AD8 Env fusion, dose response, cell-based, cherry-pick (AID 652062).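 Also: luciferase signal from cell-cell fusion driven by HIV-1 clade B AD8 Env; potency is for inhibitors of fusion seen as a drop in luminescence.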 The format is functional.
For experiment [11], the target named is T1, Luciferin 4-monooxygenase. As to the kind of experiment: In vitro luciferase assay using purified luciferase. [Related pubchem assays: 1299, 1270, 1295, 1375, 1287, 1281, 1293, 1291, 1289, 1280, 465, 1364, 1282, 1372, 1365, 1370, 1367, 1366, 1266, 1373, 1292, 1290, 1302, 1371, 1283, 1271, 1294, 1374, 1368, 1369 ].
A short description of experiment [12]: ZM109 Env clade C HIV-1 fusion inhibitors, dose response, HeLa effector, CEM target cells, luciferase, cherry-pick (AID 652058). Type of experiment: functional, cell-based.
The nature of experiment [13]: off-target signal loss in HeLa-CEM21 co-culture – HeLa F-luc CTL cells, cherry-picked, counter-screen for HIV-1 Env fusion inhibitor project, dose response (AID 652040).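 Also: potency for signal decrease marking cytotoxic or nonspecific inhibition.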 Type of experiment: functional, cell-based.
Another experiment deals with Protein Tat (Human immunodeficiency virus type 1 group M subtype B (isolate HXB2)(HIV-1), UniProt P04608). Type of experiment: functional.
Chain of Protein Tat (P04608 whole entry): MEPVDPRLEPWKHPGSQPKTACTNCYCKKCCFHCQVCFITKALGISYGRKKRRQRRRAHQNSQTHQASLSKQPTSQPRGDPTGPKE
The target of experiment [14] is Voltage-dependent T-type calcium channel subunit alpha-1H (Homo sapiens, UniProt O95180). The format is functional.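 Also: channel activity triggered by adding a high calcium stimulation buffer.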
Experiment [15] addresses T2, Kappa-type opioid receptor (Homo sapiens, UniProt P41145). Type of experiment: functional.
The next experiment addresses Beta-galactosidase (Escherichia coli, UniProt Q8VNN2). Type of experiment: functional.
The target of experiment [16] is T2, Kappa-type opioid receptor. The format is functional. This is another data set of the same source.
Experiment [17] addresses T3, Runt-related transcription factor 1/Core-binding factor subunit beta (Homo sapiens, UniProt Q01196+Q13951). The experiment is described as follows: Confirmation of compounds inhibiting the binding between the RUNX1 Runt domain and CBFb-SMMHC via a time resolved fluorescence resonance energy transfer (TR-FRET) assay. [Related pubchem assays (depositor defined):AID1434, AID1438, AID1496, AID1560, AID1645]. The format is protein assay.

Experiment [18] addresses T3, Runt-related transcription factor 1/Core-binding factor subunit beta. The experiment is described as follows: inhibitors of RUNX1 Runt–CBFb-SMMHC binding, primary screen, biochemical, FRET, Cerulean-Runt, Venus-CBFb-SMMHC, uHTS (AID 1434).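 Also: partner is the CBFb-SMMHC leukemia fusion protein rather than wild-type CBFb.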 Type of experiment: protein assay.
A further experiment deals with INS1. As to the kind of experiment: beta cell apoptosis inhibitors, cytokine rescue, dose response, luminescence, retest (AID 449756).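 Also: cell death triggered by IL-1 beta plus TNF-alpha plus IFN-gamma mixture; protective hits raise ATP signal compared with cytokine alone wells.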 Type of experiment: functional, cell-based. The settings on record: Rattus norvegicus.
Experiment [19] deals with T3, Runt-related transcription factor 1/Core-binding factor subunit beta. As to the kind of experiment: Confirmation of compounds inhibiting the binding between the RUNX1 Runt domain and CBFb-SMMHC via a fluorescence resonance energy transfer (FRET) assay. [Related pubchem assays (depositor defined):AID1434, AID1438, AID1496, AID1550, AID1645]. The format is protein assay.

The target is the same in experiment [20]. The experiment is described as follows: inhibitors of RUNX1 Runt–CBFb-SMMHC binding, biochemical, TR-FRET (AID 1438). The format is protein assay. On the technique in general: TR-FRET usually uses a lanthanide donor and a delayed reading to cut background.
A further experiment deals with Vero. As to the kind of experiment: Vero cell cytotoxicity, cytotoxicity control for flavivirus capping enzyme inhibitors (AID 588742). Type of experiment: functional. The settings on record: Chlorocebus sabaeus.

T3 sequence (Q01196 whole entry, the tested form may be a part): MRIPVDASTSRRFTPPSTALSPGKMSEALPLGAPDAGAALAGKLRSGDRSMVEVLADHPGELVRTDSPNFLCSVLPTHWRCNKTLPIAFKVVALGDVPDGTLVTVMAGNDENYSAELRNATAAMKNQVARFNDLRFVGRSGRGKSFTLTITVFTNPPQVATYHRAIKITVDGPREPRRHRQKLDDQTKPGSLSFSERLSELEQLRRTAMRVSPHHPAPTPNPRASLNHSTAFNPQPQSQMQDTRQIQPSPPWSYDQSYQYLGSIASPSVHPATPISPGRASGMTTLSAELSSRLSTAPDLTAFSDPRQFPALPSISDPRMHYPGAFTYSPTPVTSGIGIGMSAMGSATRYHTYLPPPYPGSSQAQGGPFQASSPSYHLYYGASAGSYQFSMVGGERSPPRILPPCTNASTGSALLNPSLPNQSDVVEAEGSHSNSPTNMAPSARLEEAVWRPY
T3 sequence (Q13951 whole entry, the tested form may be a part): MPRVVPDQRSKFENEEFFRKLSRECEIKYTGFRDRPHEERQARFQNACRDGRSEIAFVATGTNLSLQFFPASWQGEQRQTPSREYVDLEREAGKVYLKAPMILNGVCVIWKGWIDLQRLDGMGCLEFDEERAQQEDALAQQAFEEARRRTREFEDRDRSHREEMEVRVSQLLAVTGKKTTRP
T2 sequence (P41145 whole entry): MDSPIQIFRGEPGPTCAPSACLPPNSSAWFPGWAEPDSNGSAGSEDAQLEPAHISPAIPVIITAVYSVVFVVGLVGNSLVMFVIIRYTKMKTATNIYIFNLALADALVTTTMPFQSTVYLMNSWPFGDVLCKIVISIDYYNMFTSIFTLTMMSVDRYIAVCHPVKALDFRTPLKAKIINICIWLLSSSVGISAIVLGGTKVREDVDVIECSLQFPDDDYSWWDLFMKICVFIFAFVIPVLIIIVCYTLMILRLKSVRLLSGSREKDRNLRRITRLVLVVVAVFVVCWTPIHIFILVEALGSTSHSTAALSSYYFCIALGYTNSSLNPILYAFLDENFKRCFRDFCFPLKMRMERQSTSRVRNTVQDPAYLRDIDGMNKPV
Chain of Glyceraldehyde-3-phosphate dehydrogenase (P04406 whole entry, the tested form may be a part): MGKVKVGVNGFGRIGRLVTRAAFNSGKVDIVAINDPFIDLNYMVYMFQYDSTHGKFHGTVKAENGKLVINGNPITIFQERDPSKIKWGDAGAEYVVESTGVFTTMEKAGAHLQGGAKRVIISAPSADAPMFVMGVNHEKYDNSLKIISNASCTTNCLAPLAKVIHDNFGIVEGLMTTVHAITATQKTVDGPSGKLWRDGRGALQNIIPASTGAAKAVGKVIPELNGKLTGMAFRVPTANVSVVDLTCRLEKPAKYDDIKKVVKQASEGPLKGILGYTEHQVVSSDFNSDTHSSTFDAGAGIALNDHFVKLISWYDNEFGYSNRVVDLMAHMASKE
Chain of Beta-galactosidase (Q8VNN2 whole entry): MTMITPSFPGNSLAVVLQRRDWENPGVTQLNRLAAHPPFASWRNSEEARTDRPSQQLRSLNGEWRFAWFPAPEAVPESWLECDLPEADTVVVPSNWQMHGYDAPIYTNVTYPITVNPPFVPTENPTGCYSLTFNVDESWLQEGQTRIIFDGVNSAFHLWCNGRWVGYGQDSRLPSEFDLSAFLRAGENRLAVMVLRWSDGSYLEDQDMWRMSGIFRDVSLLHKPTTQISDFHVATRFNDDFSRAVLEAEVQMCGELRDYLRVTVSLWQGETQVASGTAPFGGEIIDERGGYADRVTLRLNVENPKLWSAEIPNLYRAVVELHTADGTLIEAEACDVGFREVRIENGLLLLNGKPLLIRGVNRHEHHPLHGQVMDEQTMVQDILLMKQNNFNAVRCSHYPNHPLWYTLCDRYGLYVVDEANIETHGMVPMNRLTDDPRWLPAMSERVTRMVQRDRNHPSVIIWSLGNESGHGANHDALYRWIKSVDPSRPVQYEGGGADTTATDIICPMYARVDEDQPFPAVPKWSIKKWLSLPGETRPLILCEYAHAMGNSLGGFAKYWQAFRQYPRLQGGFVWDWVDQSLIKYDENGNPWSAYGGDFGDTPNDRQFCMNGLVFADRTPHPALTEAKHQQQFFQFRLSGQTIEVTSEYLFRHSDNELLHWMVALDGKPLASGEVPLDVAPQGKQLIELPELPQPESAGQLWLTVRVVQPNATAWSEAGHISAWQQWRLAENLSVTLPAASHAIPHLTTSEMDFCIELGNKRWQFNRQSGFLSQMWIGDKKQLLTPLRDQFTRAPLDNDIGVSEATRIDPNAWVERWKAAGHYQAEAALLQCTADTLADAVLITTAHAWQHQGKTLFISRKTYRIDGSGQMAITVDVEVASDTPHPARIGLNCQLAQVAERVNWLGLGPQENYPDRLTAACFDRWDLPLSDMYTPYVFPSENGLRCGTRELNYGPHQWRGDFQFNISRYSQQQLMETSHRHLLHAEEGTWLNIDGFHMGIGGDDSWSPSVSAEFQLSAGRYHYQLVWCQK

For orientation: EC50 means the midpoint of the concentration-response curve. Usually AC50 stands for the concentration giving half of the maximal activity seen. With `CCN(CC)C(=O)C1CCCN(Cc2cccc(Cl)c2)C1` (stereo unspecified), the EC50 in experiment [1] was 1.33 µM (active). The AC50 in the experiment on Trypanosoma cruzi is 9.91 µM (active).

Broadly, the IC50 is the concentration that inhibits the measured activity by half. As to `Cc1cc(C(=O)CN2C(=O)c3ccccc3S2(=O)=O)c(C)n1CC1CCCO1` (stereo unspecified), the IC50 was > 39.8 µM (not active) in experiment [2], > 100 µM (not active) in [7] and > 100 µM (active) on Protein Tat. Also, the EC50 was > 50 µM (not active) with HT-1080; 1.17 µM (active) in [3]; 0.456 µM (active) in the experiment on HEK293 [4]; 8.14 µM (inactive) in the experiment with HEK293 [5]; 6.87 µM (not active) in the experiment with HEK293 [6]; > 8 µM (not active) in the experiment with HEK293 [9]. Further, in experiment [11], the EC50 is listed as > 8 µM (not active). The AC50 was 0.287 µM (active) in experiment [8], 0.445 µM (active) in [10], 1.35 µM (active) in [12] and 0.407 µM (active) in experiment [13].

`O=C(C1CCCN(S(=O)(=O)Cc2ccccc2)C1)N1CCC(Cc2ccccc2)CC1` (stereo unspecified): the EC50 is 4.73 µM (active) in experiment [14] and > 31.5 µM (inactive) on Beta-galactosidase. Moreover, the IC50 in experiment [15] is over 32 µM; in [16] it was > 31.5 µM (inactive).

As a reminder, the CC50 is the concentration giving 50% cytotoxicity. In the case of `O=C(c1cccnc1)N(c1cc2sc(=O)oc2c2ccccc12)S(=O)(=O)c1ccccc1`, the IC50 in experiment [17], in [18], in [19] and in experiment [20] was > 100 µM (inactive) in each case. For the same molecule, in the experiment on INS1, the AC50 is 6.65 µM (active). The CC50 with Vero was > 40 µM (active).
